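Assay format: 96-well plates, 48-hour exposure. Here, GI50 denotes the concentration required for 50% inhibition of growth.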 Activity calls are given as the source filed them. Cut-off read from the data, not from the text of the source: active = GI50 up to about 1.1 µM and inactive = higher.
What was measured:
Experiment in all cases: NCI tumour cell line growth inhibition, 48 h
[1] = system: SW-620
[2] = system: SNB-75
[3] = system: RXF 393
[4] = system: SNB-19
[5] = system: U-251
[6] = system: HCT-15
[7] = system: 786-0
[8] = system: OVCAR-3
[9] = system: NCI-H522
[10] = system: HOP-92
[11] = system: OVCAR-5
[12] = system: UO-31
[13] = system: ACHN
[14] = system: EKVX
[15] = system: HT-29
[16] = system: HCT-116
[17] = system: A549
[18] = system: Malme-3M
[19] = system: NCI-H23
[20] = system: UACC-257

Row | Structure (SMILES) | GI50 [1] | GI50 [2] | GI50 [3] | GI50 [4] | GI50 [5] | GI50 [6] | GI50 [7] | GI50 [8] | GI50 [9] | GI50 [10] | GI50 [11] | GI50 [12] | GI50 [13] | GI50 [14] | GI50 [15] | GI50 [16] | GI50 [17] | GI50 [18] | GI50 [19] | GI50 [20]
1 | O=C1C(c2c(O)[nH]c3ccc(S(=O)(=O)O)cc23)=Nc2ccccc21 | > 100 µM (inactive) | > 100 µM (inactive) | > 100 µM (inactive) | > 100 µM (inactive) | > 100 µM (inactive) | > 100 µM | > 100 µM (inactive) | > 100 µM (inactive) | > 100 µM (inactive) | > 100 µM (inactive) | > 100 µM (inactive) | > 100 µM (inactive) | > 100 µM (inactive) | > 100 µM (inactive) | > 100 µM (inactive) | > 100 µM (inactive) | > 100 µM (inactive) | > 100 µM (inactive) | > 100 µM (inactive) | > 100 µM (inactive)
2 | C[As+](C)(c1ccc(Br)c([N+](=O)[O-])c1)c1ccc(Br)c([N+](=O)[O-])c1 | > 100 µM (inactive) | > 100 µM (inactive) | > 100 µM (inactive) | > 100 µM (inactive) | > 100 µM (inactive) | > 100 µM | > 100 µM (inactive) | > 100 µM (inactive) | 87.7 µM (inactive) | > 100 µM (inactive) | > 100 µM (inactive) | > 100 µM (inactive) | > 100 µM (inactive) | > 100 µM (inactive) | > 100 µM (inactive) | > 100 µM (inactive) | > 100 µM (inactive) | 18.5 µM (inactive) | > 100 µM (inactive) | > 100 µM (inactive)
3 | O=C(O)c1cc2ccccc2c(/N=N/c2ccccc2)c1O | 23.8 µM (inactive) | 19.8 µM (inactive) | 34.9 µM (inactive) | 26.1 µM (inactive) | 12.8 µM (inactive) | 27.9 µM | 33.5 µM (inactive) | 26.2 µM (inactive) | 26.6 µM (inactive) | 55.3 µM (inactive) | 24.9 µM (inactive) | 31.2 µM (inactive) | 26.2 µM (inactive) | 23.4 µM (inactive) | 11.8 µM (inactive) | 35.4 µM (inactive) | 18.1 µM (inactive) | 13.1 µM (inactive) | 16.7 µM (inactive) | 15.6 µM (inactive)
4 | C=C(C(=O)OC)c1cc2ccccc2n1S(=O)(=O)c1ccccc1 | 2.09 µM (inactive) | 3.3 µM (inactive) | 0.792 µM (active) | 12.1 µM (inactive) | 1.92 µM (inactive) | 1.76 µM | 6.05 µM (inactive) | 3.4 µM (inactive) | 0.891 µM (active) | 0.927 µM (active) | 5.68 µM (inactive) | 2.36 µM (inactive) | 1.8 µM (inactive) | 12.1 µM (inactive) | 2.91 µM (inactive) | 6.55 µM (inactive) | 3.05 µM (inactive) | 2.11 µM (inactive) | 3.44 µM (inactive) | 4.86 µM (inactive)
5 | COc1ccc2c(ccc3c(COC(=O)NC(C)C)c(COC(=O)NC(C)C)n(C)c32)c1 | 11.5 µM (inactive) | 4.6 µM (inactive) | 9.02 µM (inactive) | 14.2 µM (inactive) | 15.1 µM (inactive) | 9.79 µM | 3.26 µM (inactive) | 12.7 µM (inactive) | 2.36 µM (inactive) | 11.2 µM (inactive) | 9.79 µM (inactive) | 5.98 µM (inactive) | 1.81 µM (inactive) | 16.4 µM (inactive) | 10.8 µM (inactive) | 6.04 µM (inactive) | 11.3 µM (inactive) | 2.54 µM (inactive) | 3.5 µM (inactive) | 12.7 µM (inactive)
6 | C=C(CN(C)C)C(=O)c1ccc(C(=O)C(=C)CN(C)C)cc1 | > 100 µM (inactive) | > 100 µM (inactive) | > 100 µM (inactive) | > 100 µM (inactive) | > 100 µM (inactive) | > 100 µM | > 100 µM (inactive) | > 100 µM (inactive) | > 100 µM (inactive) | > 100 µM (inactive) | > 100 µM (inactive) | > 100 µM (inactive) | > 100 µM (inactive) | > 100 µM (inactive) | > 100 µM (inactive) | > 100 µM (inactive) | 35.2 µM (inactive) | > 100 µM (inactive) | > 100 µM (inactive) | > 100 µM (inactive)
7 | CC(CCCCNC(=O)OC(C)(C)C)NC(=O)NC(C)CCCCNC(=O)OC(C)(C)C (stereo not given) | > 100 µM (inactive) | > 100 µM (inactive) | > 100 µM (inactive) | > 100 µM (inactive) | > 100 µM (inactive) | > 100 µM | > 100 µM (inactive) | 57 µM (inactive) | > 100 µM (inactive) | > 100 µM (inactive) | > 100 µM (inactive) | > 100 µM (inactive) | > 100 µM (inactive) | > 100 µM (inactive) | > 100 µM (inactive) | 50.7 µM (inactive) | > 100 µM (inactive) | > 100 µM (inactive) | > 100 µM (inactive) | 43.5 µM (inactive)
8 | CSCCC(C(=O)O)N(C)C (stereo not given) | > 100 µM (inactive) | > 100 µM (inactive) | > 100 µM (inactive) | > 100 µM (inactive) | > 100 µM (inactive) | > 100 µM | > 100 µM (inactive) | > 100 µM (inactive) | > 100 µM (inactive) | > 100 µM (inactive) | > 100 µM (inactive) | > 100 µM (inactive) | > 100 µM (inactive) | > 100 µM (inactive) | > 100 µM (inactive) | > 100 µM (inactive) | > 100 µM (inactive) | > 100 µM (inactive) | > 100 µM (inactive) | > 100 µM (inactive)
9 | Nc1ccc(C(=O)NN2C(=O)C(Cl)C2c2ccccc2Cl)cc1 (stereo not given) | 3.46 µM (inactive) | 16.5 µM (inactive) | 5.48 µM (inactive) | 16.9 µM (inactive) | 12.3 µM (inactive) | 3.01 µM | 1.69 µM (inactive) | 13.8 µM (inactive) | 1.71 µM (inactive) | 4.48 µM (inactive) | 15.2 µM (inactive) | 17 µM (inactive) | 16.4 µM (inactive) | 17.5 µM (inactive) | 10.3 µM (inactive) | 4.21 µM (inactive) | 14.3 µM (inactive) | 17.6 µM (inactive) | 12.3 µM (inactive) | 13.6 µM (inactive)
10 | CC(C)N(C(C)C)S(=O)(=O)C[C@]12CC[C@H](CC13OCC(CS(=O)(=O)c1ccccc1)O3)C2(C)C (stereo not given in full) | 45 µM (inactive) | 27.6 µM (inactive) | 49 µM (inactive) | 95.7 µM (inactive) | 52 µM (inactive) | 47 µM | 45.9 µM (inactive) | 31.3 µM (inactive) | 21.8 µM (inactive) | > 24.3 µM (inactive) | > 76.4 µM (inactive) | 69.5 µM (inactive) | 47.8 µM (inactive) | 39.3 µM (inactive) | 33.4 µM (inactive) | 35.9 µM (inactive) | 36.6 µM (inactive) | 89.1 µM (inactive) | 47.3 µM (inactive) | 28.2 µM (inactive)

— ChEMBL document CHEMBL1201862, “PubChem BioAssay data set” (2004)
